# Results from PubChem BioAssay (NCI).
#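 Following 48 hours of exposure in 96-well plates, responses at five concentrations were used to interpolate endpoints linearly. Definition used: TGI = concentration required for complete inhibition of growth.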
# Test system: A549 NSCLC
# Assay: NCI anticancer screen, dose series, 48 h
row,Structure (SMILES),TGI [µM]
1,O=C1c2ccccc2S[C@@H](O)[C@@H]2CCCN12,> 100
2,Cc1cc(=O)[nH]c(NNC(C#N)c2ccc(O)cc2)n1 (centres undefined),> 100
3,COc1ccc(OC)c2c1C(=O)C(Cl)=C(N1CCN(CCOCCO)CC1)C2=O,39
4,O=C(CSc1nnc(Cc2ccccc2)o1)Nc1cccc([N+](=O)[O-])c1,> 100
5,COc1cccc(C2c3cc4c(cc3OC(N3CCCC3)C2C)OCO4)c1 (centres undefined),> 100
6,CN(C)/N=C(\CCN1CCCC1)CC(c1ccccc1)c1c(O)c2ccccc2oc1=O (centres undefined),> 100
7,O=P(c1ccccc1)(c1ccccc1)C(NCc1ccccc1)c1ccc(F)cc1 (centres undefined),30.2
8,C1=C2C3=[N+](CCCC3)CC2Cc2ccsc21 (centres undefined),> 100
9,CC(=O)NCc1nc(C#N)c(N)o1,> 100
10,Clc1ccc2c(NCCCCN=Cc3ccccc3)ccnc2c1,31.3
11,COc1cc2c(c(OC)c1OC)-c1ccc(SC)c(=O)cc1C(CC(=O)Oc1ccc([N+](=O)[O-])cc1)C2 (centres undefined),> 100
12,CC(=O)NC(CCCN)C(=O)NCc1ccccc1 (centres undefined),> 100
13,Cc1[nH]c(=O)[nH]c(=S)c1C(=O)NC(C)(CO)CO,> 100
14,Cc1cc(O)c(/C=N/C(=S)NCCc2ccccc2)c(=O)o1,> 100
15,Cc1ccccc1Nc1cn(COCc2ccccc2)c(=O)[nH]c1=O,> 100
16,COc1ccc(-c2c(C(C)=O)c(-c3ccccc3)n(C3OC(COC(C)=O)C(OC(C)=O)C(OC(C)=O)C3OC(C)=O)c(=S)c2C#N)cc1 (centres undefined),> 100
17,Cc1oc2nc(N(C)C)nc(Cl)c2c1C,> 100
18,Cn1c(=O)c2c(nc(NCCCCl)n2CC(=O)NCCCCl)n(C)c1=O,> 100
19,CCCCCCCCCCCCCCCCCc1cccc(OCOCCOC)c1CO,> 100
20,CCOC(=O)Cn1sc2ncc([N+](=O)[O-])cc2c1=O,39.7
21,O=C1CCC(c2ccccc2)C(O)(C(=O)O)C1 (centres undefined),> 100
22,N#CCCN(CCC#N)c1ccc(C(=O)NN)cc1,> 100
23,NS(=O)(=O)c1nnc(NC(=O)c2ccccc2)s1,> 100
24,CC(=O)OCC1OC(N2C(c3ccccc3)=CC(c3ccccc3)C(C#N)=C2S)C(OC(C)=O)C(OC(C)=O)C1OC(C)=O (centres undefined),> 46.4
25,CC(=O)OC1CC2OC(Cc3ccccc32)O1 (centres undefined),> 100
26,C/C(=N\NC(=S)N1CC2CCC(CC2)C1)c1ccncn1,1.94
27,COC(=O)CCC(=O)NC1c2cccc3cccc(c23)Cn2c(=O)n(C)c(=O)n21 (centres undefined),> 100
28,CCOC(=O)CC(NC(=O)c1nc[nH]c1[N+](=O)[O-])C(=O)OCC (centres undefined),> 100
29,N#[O+].O=S(=O)([O-])[O-].[NH2-].[NH2-].[NH2-].[NH2-].[NH2-].[Ru+5],> 100

# Test system: COLO 205 colon
# Assay: NCI anticancer screen, dose series, 48 h
row,Structure (SMILES),TGI [µM]
1,O=C1c2ccccc2S[C@@H](O)[C@@H]2CCCN12,> 100
2,Cc1cc(=O)[nH]c(NNC(C#N)c2ccc(O)cc2)n1 (centres undefined),> 100
3,O=C(CSc1nnc(Cc2ccccc2)o1)Nc1cccc([N+](=O)[O-])c1,> 100
4,COc1cccc(C2c3cc4c(cc3OC(N3CCCC3)C2C)OCO4)c1 (centres undefined),36.7
5,CN(C)/N=C(\CCN1CCCC1)CC(c1ccccc1)c1c(O)c2ccccc2oc1=O (centres undefined),> 100
6,O=P(c1ccccc1)(c1ccccc1)C(NCc1ccccc1)c1ccc(F)cc1 (centres undefined),29.7
7,C1=C2C3=[N+](CCCC3)CC2Cc2ccsc21 (centres undefined),> 100
8,CC(=O)NCc1nc(C#N)c(N)o1,> 100
9,Clc1ccc2c(NCCCCN=Cc3ccccc3)ccnc2c1,18.1
10,COc1cc2c(c(OC)c1OC)-c1ccc(SC)c(=O)cc1C(CC(=O)Oc1ccc([N+](=O)[O-])cc1)C2 (centres undefined),1.09
11,CC(=O)NC(CCCN)C(=O)NCc1ccccc1 (centres undefined),> 100
12,Cc1[nH]c(=O)[nH]c(=S)c1C(=O)NC(C)(CO)CO,> 100
13,Cc1cc(O)c(/C=N/C(=S)NCCc2ccccc2)c(=O)o1,> 100
14,Cc1ccccc1Nc1cn(COCc2ccccc2)c(=O)[nH]c1=O,> 100
15,COc1ccc(-c2c(C(C)=O)c(-c3ccccc3)n(C3OC(COC(C)=O)C(OC(C)=O)C(OC(C)=O)C3OC(C)=O)c(=S)c2C#N)cc1 (centres undefined),> 100
16,Cc1oc2nc(N(C)C)nc(Cl)c2c1C,> 100
17,Cn1c(=O)c2c(nc(NCCCCl)n2CC(=O)NCCCCl)n(C)c1=O,> 100
18,CCCCCCCCCCCCCCCCCc1cccc(OCOCCOC)c1CO,> 100
19,CCOC(=O)Cn1sc2ncc([N+](=O)[O-])cc2c1=O,25.6
20,O=C1CCC(c2ccccc2)C(O)(C(=O)O)C1 (centres undefined),> 100
21,N#CCCN(CCC#N)c1ccc(C(=O)NN)cc1,> 100
22,NS(=O)(=O)c1nnc(NC(=O)c2ccccc2)s1,> 100
23,CC1=CC(=O)NP(=O)(Oc2ccc(C)cc2)N1 (centres undefined),> 100
24,CC(=O)OC1CC2OC(Cc3ccccc32)O1 (centres undefined),> 100
25,C/C(=N\NC(=S)N1CC2CCC(CC2)C1)c1ccncn1,< 0.0333
26,COC(=O)CCC(=O)NC1c2cccc3cccc(c23)Cn2c(=O)n(C)c(=O)n21 (centres undefined),> 100
27,CCOC(=O)CC(NC(=O)c1nc[nH]c1[N+](=O)[O-])C(=O)OCC (centres undefined),> 100
28,N#[O+].O=S(=O)([O-])[O-].[NH2-].[NH2-].[NH2-].[NH2-].[NH2-].[Ru+5],> 100

# Test system: HCC-2998 colon
# Assay: NCI anticancer screen, dose series, 48 h
row,Structure (SMILES),TGI [µM]
1,O=C1c2ccccc2S[C@@H](O)[C@@H]2CCCN12,> 100
2,COc1ccc(OC)c2c1C(=O)C(Cl)=C(N1CCN(CCOCCO)CC1)C2=O,24.9
3,O=C(CSc1nnc(Cc2ccccc2)o1)Nc1cccc([N+](=O)[O-])c1,> 100
4,COc1cccc(C2c3cc4c(cc3OC(N3CCCC3)C2C)OCO4)c1 (centres undefined),24.9
5,CN(C)/N=C(\CCN1CCCC1)CC(c1ccccc1)c1c(O)c2ccccc2oc1=O (centres undefined),> 100
6,O=P(c1ccccc1)(c1ccccc1)C(NCc1ccccc1)c1ccc(F)cc1 (centres undefined),29.6
7,CC(=O)NCc1nc(C#N)c(N)o1,> 100
8,Clc1ccc2c(NCCCCN=Cc3ccccc3)ccnc2c1,27.8
9,COc1cc2c(c(OC)c1OC)-c1ccc(SC)c(=O)cc1C(CC(=O)Oc1ccc([N+](=O)[O-])cc1)C2 (centres undefined),2.13
10,CC(=O)NC(CCCN)C(=O)NCc1ccccc1 (centres undefined),> 100
11,Cc1[nH]c(=O)[nH]c(=S)c1C(=O)NC(C)(CO)CO,> 100
12,Cc1cc(O)c(/C=N/C(=S)NCCc2ccccc2)c(=O)o1,> 100
13,Cc1ccccc1Nc1cn(COCc2ccccc2)c(=O)[nH]c1=O,> 100
14,COc1ccc(-c2c(C(C)=O)c(-c3ccccc3)n(C3OC(COC(C)=O)C(OC(C)=O)C(OC(C)=O)C3OC(C)=O)c(=S)c2C#N)cc1 (centres undefined),> 100
15,Cc1oc2nc(N(C)C)nc(Cl)c2c1C,> 100
16,Cn1c(=O)c2c(nc(NCCCCl)n2CC(=O)NCCCCl)n(C)c1=O,> 100
17,CCCCCCCCCCCCCCCCCc1cccc(OCOCCOC)c1CO,> 100
18,CCOC(=O)Cn1sc2ncc([N+](=O)[O-])cc2c1=O,32.2
19,O=C1CCC(c2ccccc2)C(O)(C(=O)O)C1 (centres undefined),> 100
20,N#CCCN(CCC#N)c1ccc(C(=O)NN)cc1,> 100
21,NS(=O)(=O)c1nnc(NC(=O)c2ccccc2)s1,> 100
22,CC(=O)OCC1OC(N2C(c3ccccc3)=CC(c3ccccc3)C(C#N)=C2S)C(OC(C)=O)C(OC(C)=O)C1OC(C)=O (centres undefined),> 100
23,CC(=O)OC1CC2OC(Cc3ccccc32)O1 (centres undefined),> 100
24,COC(=O)CCC(=O)NC1c2cccc3cccc(c23)Cn2c(=O)n(C)c(=O)n21 (centres undefined),> 100
25,CCOC(=O)CC(NC(=O)c1nc[nH]c1[N+](=O)[O-])C(=O)OCC (centres undefined),> 100
26,N#[O+].O=S(=O)([O-])[O-].[NH2-].[NH2-].[NH2-].[NH2-].[NH2-].[Ru+5],> 100

# Test system: HCT-15 colon
# Assay: NCI anticancer screen, dose series, 48 h
row,Structure (SMILES),TGI [µM]
1,O=C1c2ccccc2S[C@@H](O)[C@@H]2CCCN12,> 100
2,Cc1cc(=O)[nH]c(NNC(C#N)c2ccc(O)cc2)n1 (centres undefined),> 100
3,COc1ccc(OC)c2c1C(=O)C(Cl)=C(N1CCN(CCOCCO)CC1)C2=O,18.4
4,O=C(CSc1nnc(Cc2ccccc2)o1)Nc1cccc([N+](=O)[O-])c1,> 100
5,COc1cccc(C2c3cc4c(cc3OC(N3CCCC3)C2C)OCO4)c1 (centres undefined),> 100
6,O=P(c1ccccc1)(c1ccccc1)C(NCc1ccccc1)c1ccc(F)cc1 (centres undefined),28.7
7,C1=C2C3=[N+](CCCC3)CC2Cc2ccsc21 (centres undefined),> 100
8,CC(=O)NCc1nc(C#N)c(N)o1,> 100
9,Clc1ccc2c(NCCCCN=Cc3ccccc3)ccnc2c1,33.1
10,COc1cc2c(c(OC)c1OC)-c1ccc(SC)c(=O)cc1C(CC(=O)Oc1ccc([N+](=O)[O-])cc1)C2 (centres undefined),> 100
11,CC(=O)NC(CCCN)C(=O)NCc1ccccc1 (centres undefined),> 100
12,Cc1[nH]c(=O)[nH]c(=S)c1C(=O)NC(C)(CO)CO,> 100
13,Cc1cc(O)c(/C=N/C(=S)NCCc2ccccc2)c(=O)o1,> 100
14,Cc1ccccc1Nc1cn(COCc2ccccc2)c(=O)[nH]c1=O,> 100
15,COc1ccc(-c2c(C(C)=O)c(-c3ccccc3)n(C3OC(COC(C)=O)C(OC(C)=O)C(OC(C)=O)C3OC(C)=O)c(=S)c2C#N)cc1 (centres undefined),> 100
16,Cc1oc2nc(N(C)C)nc(Cl)c2c1C,> 100
17,Cn1c(=O)c2c(nc(NCCCCl)n2CC(=O)NCCCCl)n(C)c1=O,> 100
18,CCCCCCCCCCCCCCCCCc1cccc(OCOCCOC)c1CO,> 100
19,CCOC(=O)Cn1sc2ncc([N+](=O)[O-])cc2c1=O,31.2
20,O=C1CCC(c2ccccc2)C(O)(C(=O)O)C1 (centres undefined),> 100
21,N#CCCN(CCC#N)c1ccc(C(=O)NN)cc1,> 100
22,NS(=O)(=O)c1nnc(NC(=O)c2ccccc2)s1,> 100
23,CC1=CC(=O)NP(=O)(Oc2ccc(C)cc2)N1 (centres undefined),> 100
24,CC(=O)OCC1OC(N2C(c3ccccc3)=CC(c3ccccc3)C(C#N)=C2S)C(OC(C)=O)C(OC(C)=O)C1OC(C)=O (centres undefined),> 100
25,COC(=O)CCC(=O)NC1c2cccc3cccc(c23)Cn2c(=O)n(C)c(=O)n21 (centres undefined),> 100
26,CCOC(=O)CC(NC(=O)c1nc[nH]c1[N+](=O)[O-])C(=O)OCC (centres undefined),> 100
27,N#[O+].O=S(=O)([O-])[O-].[NH2-].[NH2-].[NH2-].[NH2-].[NH2-].[Ru+5],> 100

# Test system: HOP-62 NSCLC
# Assay: NCI anticancer screen, dose series, 48 h
row,Structure (SMILES),TGI [µM]
1,O=C1c2ccccc2S[C@@H](O)[C@@H]2CCCN12,> 100
2,Cc1cc(=O)[nH]c(NNC(C#N)c2ccc(O)cc2)n1 (centres undefined),> 100
3,COc1ccc(OC)c2c1C(=O)C(Cl)=C(N1CCN(CCOCCO)CC1)C2=O,22.7
4,O=C(CSc1nnc(Cc2ccccc2)o1)Nc1cccc([N+](=O)[O-])c1,> 100
